Source: ChEMBL document CHEMBL1201862, “PubChem BioAssay data set” (2004)
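In this assay, cells in 96-well plates receive the compound at five concentrations for 48 hours. Endpoints are linearly interpolated between the surrounding concentrations. At the GI50, growth is halved.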 Active and inactive are the calls of the source. Cut-off read from the data, not from the text of the source: active = GI50 up to about 1.1 µM and inactive = higher.

Assays:
Assay in all cases: inhibition of tumour cell growth, NCI panel, 48 h
786-0 = test system: 786-0
A498 = test system: A498
A549 = test system: A549
ACHN = test system: ACHN
CAKI-1 = test system: CAKI-1
CCRF-CEM = test system: CCRF-CEM
COLO 205 = test system: COLO 205
DLD-1 = test system: DLD-1
DMS-114 = test system: DMS-114
DMS-273 = test system: DMS-273
EKVX = test system: EKVX
HCC 2998 = test system: HCC 2998
HCT-116 = test system: HCT-116
HCT-15 = test system: HCT-15
HOP-18 = test system: HOP-18
HOP-62 = test system: HOP-62
HOP-92 = test system: HOP-92
HT-29 = test system: HT-29
IGROV-1 = test system: IGROV-1
K562 = test system: K562
KM-20L2 = test system: KM-20L2
KM12 = test system: KM12
LOX IMVI = test system: LOX IMVI
M14 = test system: M14
M19-MEL = test system: M19-MEL
Malme-3M = test system: Malme-3M
NCI-H226 = test system: NCI-H226
NCI-H23 = test system: NCI-H23
NCI-H460 = test system: NCI-H460
OVCAR-3 = test system: OVCAR-3
OVCAR-4 = test system: OVCAR-4
OVCAR-5 = test system: OVCAR-5
OVCAR-8 = test system: OVCAR-8
RPMI-8226 = test system: RPMI-8226
RXF 631 = test system: RXF 631
SF-268 = test system: SF-268
SF-295 = test system: SF-295
SF-539 = test system: SF-539
SK-MEL-28 = test system: SK-MEL-28
SK-MEL-2 = test system: SK-MEL-2
SK-MEL-5 = test system: SK-MEL-5
SK-OV-3 = test system: SK-OV-3
SN12C = test system: SN12C
SNB-19 = test system: SNB-19
SNB-75 = test system: SNB-75
SNB-78 = test system: SNB-78
SW-620 = test system: SW-620
TK-10 = test system: TK-10
U-251 = test system: U-251
UACC-257 = test system: UACC-257
UACC-62 = test system: UACC-62
UO-31 = test system: UO-31
XF498 = test system: XF498
BT-549 = test system: BT-549
DU-145 = test system: DU-145
HL-60 = test system: HL-60
Hs-578T = test system: Hs-578T
LXFL 529 = test system: LXFL 529
MCF7 = test system: MCF7
MDA-MB-231 = test system: MDA-MB-231
MDA-MB-435 = test system: MDA-MB-435
MDA-N = test system: MDA-N
MOLT-4 = test system: MOLT-4
NCI-H522 = test system: NCI-H522
NCI/ADR-RES = test system: NCI/ADR-RES
PC-3 = test system: PC-3
RXF 393 = test system: RXF 393
SR = test system: SR

Cn1nc2ccccc2cc1=O
GI50 (786-0): > 100 µM (inactive)
GI50 (A498): > 100 µM (inactive)
GI50 (A549): > 100 µM (inactive)
GI50 (ACHN): > 100 µM (inactive)
GI50 (CAKI-1): > 100 µM (inactive)
GI50 (CCRF-CEM): > 100 µM (inactive)
GI50 (COLO 205): > 100 µM (inactive)
GI50 (DLD-1): > 100 µM (inactive)
GI50 (DMS-114): > 100 µM (inactive)
GI50 (DMS-273): > 100 µM (inactive)
GI50 (EKVX): > 100 µM (inactive)
GI50 (HCC 2998): > 100 µM (inactive)
GI50 (HCT-116): > 100 µM (inactive)
GI50 (HCT-15): > 100 µM
GI50 (HOP-18): > 100 µM (inactive)
GI50 (HOP-62): > 100 µM (inactive)
GI50 (HOP-92): > 100 µM (inactive)
GI50 (HT-29): > 100 µM (inactive)
GI50 (IGROV-1): > 100 µM (inactive)
GI50 (K562): > 100 µM (inactive)
GI50 (KM-20L2): > 100 µM (inactive)
GI50 (KM12): > 100 µM (inactive)
GI50 (LOX IMVI): > 100 µM (inactive)
GI50 (M14): > 100 µM (inactive)
GI50 (M19-MEL): > 100 µM (inactive)
GI50 (Malme-3M): > 100 µM (inactive)
GI50 (NCI-H226): > 100 µM (inactive)
GI50 (NCI-H23): > 100 µM (inactive)
GI50 (NCI-H460): > 100 µM (inactive)
GI50 (OVCAR-3): > 100 µM (inactive)
GI50 (OVCAR-4): > 100 µM (inactive)
GI50 (OVCAR-5): > 100 µM (inactive)
GI50 (OVCAR-8): > 100 µM (inactive)
GI50 (RPMI-8226): > 100 µM (inactive)
GI50 (RXF 631): > 100 µM (inactive)
GI50 (SF-268): > 100 µM (inactive)
GI50 (SF-295): > 100 µM (inactive)
GI50 (SF-539): > 100 µM (inactive)
GI50 (SK-MEL-28): > 100 µM (inactive)
GI50 (SK-MEL-2): > 100 µM (inactive)
GI50 (SK-MEL-5): > 100 µM (inactive)
GI50 (SK-OV-3): > 100 µM (inactive)
GI50 (SN12C): > 100 µM (inactive)
GI50 (SNB-19): > 100 µM (inactive)
GI50 (SNB-75): 59.2 µM (inactive)
GI50 (SNB-78): > 100 µM (inactive)
GI50 (SW-620): > 100 µM (inactive)
GI50 (TK-10): > 100 µM (inactive)
GI50 (U-251): > 100 µM (inactive)
GI50 (UACC-257): > 100 µM (inactive)
GI50 (UACC-62): > 100 µM (inactive)
GI50 (UO-31): > 100 µM (inactive)
GI50 (XF498): > 100 µM (inactive)

N#CCC(=O)N/N=C(\CCN1CCCC1)CC(c1ccccc1)c1c(O)c2ccccc2oc1=O (stereo unspecified)
GI50 (786-0): > 100 µM (inactive)
GI50 (A498): > 41.1 µM (inactive)
GI50 (A549): > 71.9 µM (inactive)
GI50 (ACHN): > 60.4 µM (inactive)
GI50 (BT-549): 47.5 µM (inactive)
GI50 (CAKI-1): > 95.3 µM (inactive)
GI50 (CCRF-CEM): 39.4 µM (inactive)
GI50 (COLO 205): 25.5 µM (inactive)
GI50 (DLD-1): > 100 µM (inactive)
GI50 (DU-145): > 100 µM (inactive)
GI50 (EKVX): > 100 µM (inactive)
GI50 (HCC 2998): 21.2 µM (inactive)
GI50 (HCT-116): > 84.1 µM (inactive)
GI50 (HCT-15): > 67.5 µM
GI50 (HL-60): 24.5 µM (inactive)
GI50 (HOP-18): > 100 µM (inactive)
GI50 (HOP-62): > 100 µM (inactive)
GI50 (HOP-92): 27.7 µM (inactive)
GI50 (HT-29): > 88.7 µM (inactive)
GI50 (Hs-578T): 63.7 µM (inactive)
GI50 (IGROV-1): > 100 µM (inactive)
GI50 (K562): 62.1 µM (inactive)
GI50 (KM-20L2): > 100 µM (inactive)
GI50 (KM12): > 63.7 µM (inactive)
GI50 (LOX IMVI): > 41.3 µM (inactive)
GI50 (LXFL 529): > 100 µM (inactive)
GI50 (M14): 98.6 µM (inactive)
GI50 (M19-MEL): 78.7 µM (inactive)
GI50 (MCF7): 20.2 µM (inactive)
GI50 (MDA-MB-231): 40.3 µM (inactive)
GI50 (MDA-MB-435): 57 µM (inactive)
GI50 (MDA-N): 58.6 µM (inactive)
GI50 (MOLT-4): 24.5 µM (inactive)
GI50 (Malme-3M): 60 µM (inactive)
GI50 (NCI-H226): > 89.5 µM (inactive)
GI50 (NCI-H23): 97.1 µM (inactive)
GI50 (NCI-H460): > 100 µM (inactive)
GI50 (NCI-H522): 70.6 µM (inactive)
GI50 (NCI/ADR-RES): 56.4 µM (inactive)
GI50 (OVCAR-3): 65.3 µM (inactive)
GI50 (OVCAR-4): > 86.3 µM (inactive)
GI50 (OVCAR-5): > 100 µM (inactive)
GI50 (OVCAR-8): > 95.5 µM (inactive)
GI50 (PC-3): 64.7 µM (inactive)
GI50 (RPMI-8226): 32.9 µM (inactive)
GI50 (RXF 393): > 100 µM (inactive)
GI50 (RXF 631): > 100 µM (inactive)
GI50 (SF-268): > 100 µM (inactive)
GI50 (SF-295): > 100 µM (inactive)
GI50 (SF-539): > 88.5 µM (inactive)
GI50 (SK-MEL-28): > 100 µM (inactive)
GI50 (SK-MEL-2): > 61.1 µM (inactive)
GI50 (SK-MEL-5): > 72.1 µM (inactive)
GI50 (SK-OV-3): > 86.9 µM (inactive)
GI50 (SN12C): > 100 µM (inactive)
GI50 (SNB-19): > 100 µM (inactive)
GI50 (SNB-75): > 89.1 µM (inactive)
GI50 (SR): 29.4 µM (inactive)
GI50 (SW-620): > 58.2 µM (inactive)
GI50 (TK-10): > 78.9 µM (inactive)
GI50 (U-251): 82.6 µM (inactive)
GI50 (UACC-257): > 70.6 µM (inactive)
GI50 (UACC-62): > 80.2 µM (inactive)
GI50 (UO-31): 59.8 µM (inactive)
GI50 (XF498): > 100 µM (inactive)

Cc1c2ccccc2c(CO)c2cc(F)c3ccccc3c12
GI50 (A498): 38.2 µM (inactive)
GI50 (A549): 26.6 µM (inactive)
GI50 (ACHN): 19.5 µM (inactive)
GI50 (CAKI-1): 25.4 µM (inactive)
GI50 (CCRF-CEM): 22.3 µM (inactive)
GI50 (COLO 205): 15.6 µM (inactive)
GI50 (DLD-1): 14.8 µM (inactive)
GI50 (DMS-114): 18.1 µM (inactive)
GI50 (DMS-273): 14.8 µM (inactive)
GI50 (EKVX): 29.9 µM (inactive)
GI50 (HCC 2998): 50.6 µM (inactive)
GI50 (HCT-116): 19.3 µM (inactive)
GI50 (HL-60): 17.6 µM (inactive)
GI50 (HOP-18): 28.5 µM (inactive)
GI50 (HOP-62): 31.5 µM (inactive)
GI50 (HOP-92): 32.4 µM (inactive)
GI50 (HT-29): 19.1 µM (inactive)
GI50 (IGROV-1): 20.7 µM (inactive)
GI50 (K562): 23.5 µM (inactive)
GI50 (KM-20L2): 21.1 µM (inactive)
GI50 (KM12): 18.8 µM (inactive)
GI50 (LOX IMVI): 17.1 µM (inactive)
GI50 (M19-MEL): 35.8 µM (inactive)
GI50 (MOLT-4): 14.8 µM (inactive)
GI50 (Malme-3M): 53.8 µM (inactive)
GI50 (NCI-H226): 42 µM (inactive)
GI50 (NCI-H23): 36.5 µM (inactive)
GI50 (NCI-H522): 12.9 µM (inactive)
GI50 (OVCAR-3): 26.9 µM (inactive)
GI50 (OVCAR-4): 23.4 µM (inactive)
GI50 (OVCAR-5): 28 µM (inactive)
GI50 (OVCAR-8): 19.6 µM (inactive)
GI50 (RXF 393): 24.7 µM (inactive)
GI50 (RXF 631): 16.7 µM (inactive)
GI50 (SF-268): 24.5 µM (inactive)
GI50 (SF-295): 21.9 µM (inactive)
GI50 (SF-539): 30.6 µM (inactive)
GI50 (SK-MEL-28): 44 µM (inactive)
GI50 (SK-MEL-2): 18.5 µM (inactive)
GI50 (SK-MEL-5): 43.9 µM (inactive)
GI50 (SK-OV-3): 29 µM (inactive)
GI50 (SN12C): 17.3 µM (inactive)
GI50 (SNB-19): 30 µM (inactive)
GI50 (SNB-75): 29.9 µM (inactive)
GI50 (SNB-78): 24 µM (inactive)
GI50 (SR): 27 µM (inactive)
GI50 (SW-620): 37.5 µM (inactive)
GI50 (TK-10): 37.4 µM (inactive)
GI50 (U-251): 21.3 µM (inactive)
GI50 (UACC-257): 47.3 µM (inactive)
GI50 (UACC-62): 27.2 µM (inactive)
GI50 (UO-31): 40 µM (inactive)
GI50 (XF498): 22.1 µM (inactive)
